The values below come from patent publication US10435431B2, “3,3 disubstituted 19-nor pregnane compounds, compositions, and uses thereof” (Sage Therapeutics, Inc., priority 2011, dated 2019).

Molecules are shown by their SMILES. Some results are limits rather than exact numbers.

The target in assay [1] is T1, Recombinant α1β2γ2 GABAA Receptors (Homo sapiens, UniProt P14867+P47870).
T1 construct: expressed in transfected cells; host or cells: Ltk cells
Description: Patch clamp electrophysiology of recombinant α1β2γ2 GABAA receptors, potentiation of GABA mediated currents. In kind it is cell-based. The note with it: Ltk cells, GABA EC10=0.5 μM, whole cell patch clamp; for % potentiation at 100 nM: test article 100 nM; for % potentiation at 1000 nM: test article 1000 nM; for % potentiation at 10000 nM: test article 10000 nM. As for the experimental part: Patch Clamp Electrophysiology of Recombinant α1β2γ2 GABAA Receptors
Cellular electrophysiology is used to measure in vitro potency and efficacy of our GABAA receptor modulators in Ltk cells. Each compound is tested for its ability to affect GABA mediated currents at a submaximal agonist dose (GABA EC10=0.5 μM) in a whole cell patch clamp technique using a EPC-10, HEKA Electronics Amplifier and PatchMaster software. These experiments measure potency, efficacy (Emax), direct gating properties and acute desensitization. Test article is added at 0.1, 1.0 and 10 uM.

The target of assay [2] is [35S]-TBPS binding, rat brain cortical membranes. Description: Steroid inhibition of [35S]-TBPS binding. The note with it: 2 nM [35S]-TBPS, in the presence of 5 μM GABA. As for the experimental part:
Steroid Inhibition of TBPS Binding
TBPS binding assays using rat brain cortical membranes in the presence of 5 μM GABA has been described (Gee et al, J. Pharmacol. Exp. Ther. 1987, 241, 346-353; Hawkinson et al, Mol. Pharmacol. 1994, 46, 977-985).
Briefly, cortices are rapidly removed following decapitation of carbon dioxide-anesthetized Sprague-Dawley rats (200-250 g). The cortices are homogenized in 10 volumes of ice-cold 0.32 M sucrose using a glass/teflon homogenizer and centrifuged at 1500×g for 10 min at 4° C. The resultant supernatants are centrifuged at 10,000×g for 20 min at 4° C. to obtain the P2 pellets. The P2 pellets are resuspended in 200 mM NaCl/50 mM Na—K phosphate pH 7.4 buffer and centrifuged at 10,000×g for 10 min at 4° C. This ishing procedure is repeated twice and the pellets are resuspended in 10 volumes of buffer. Aliquots (100 μL) of the membrane suspensions are incubated with 2 nM [^35S]-TBPS and 5 μL aliquots of test drug dissolved in dimethyl sulfoxide (DMSO) (final 0.5%) in the presence of 5 μM GABA. The incubation is brought to a final volume of 1.0 mL with buffer. Nonspecific binding is determined in the presence of 2 μM unlabeled TBPS and ranged from 15 to 25%. Following a 90 min incubation at room temp, the assays are terminated by filtration through glass fiber filters (Schleicher and Schuell No. 32) using a cell harvester (Brandel) and rinsed three times with ice-cold buffer. Filter bound radioactivity is measured by liquid scintillation spectrometry. Non-linear curve fitting of the overall data for each drug averaged for each concentration is done using Prism (GraphPad). […] The concentration of test compound producing 50% inhibition (IC50) of specific binding and the maximal extent of inhibition (Imax) are determined for the individual experiments with the same model used for the overall data and then the means±SEM.s of the individual experiments are calculated.
Various compounds are or can be screened to determine their potential as modulators of [^35S]-TBPS binding in vitro. These assays are or can be performed in accordance with the above discussed procedures.

T1 sequence (P14867 28-456): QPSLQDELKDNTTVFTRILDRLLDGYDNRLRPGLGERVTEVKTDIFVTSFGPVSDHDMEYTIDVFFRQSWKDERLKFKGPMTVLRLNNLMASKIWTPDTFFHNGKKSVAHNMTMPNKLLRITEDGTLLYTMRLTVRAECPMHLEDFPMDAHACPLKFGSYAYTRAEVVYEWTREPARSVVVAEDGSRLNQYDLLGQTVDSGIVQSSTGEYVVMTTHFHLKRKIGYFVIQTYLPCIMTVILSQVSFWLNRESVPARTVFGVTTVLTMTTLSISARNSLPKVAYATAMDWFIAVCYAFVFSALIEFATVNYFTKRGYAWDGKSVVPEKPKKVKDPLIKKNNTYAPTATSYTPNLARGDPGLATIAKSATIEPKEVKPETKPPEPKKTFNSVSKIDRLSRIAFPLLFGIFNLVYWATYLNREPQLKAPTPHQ
T1 sequence (P47870 25-512 limits assumed): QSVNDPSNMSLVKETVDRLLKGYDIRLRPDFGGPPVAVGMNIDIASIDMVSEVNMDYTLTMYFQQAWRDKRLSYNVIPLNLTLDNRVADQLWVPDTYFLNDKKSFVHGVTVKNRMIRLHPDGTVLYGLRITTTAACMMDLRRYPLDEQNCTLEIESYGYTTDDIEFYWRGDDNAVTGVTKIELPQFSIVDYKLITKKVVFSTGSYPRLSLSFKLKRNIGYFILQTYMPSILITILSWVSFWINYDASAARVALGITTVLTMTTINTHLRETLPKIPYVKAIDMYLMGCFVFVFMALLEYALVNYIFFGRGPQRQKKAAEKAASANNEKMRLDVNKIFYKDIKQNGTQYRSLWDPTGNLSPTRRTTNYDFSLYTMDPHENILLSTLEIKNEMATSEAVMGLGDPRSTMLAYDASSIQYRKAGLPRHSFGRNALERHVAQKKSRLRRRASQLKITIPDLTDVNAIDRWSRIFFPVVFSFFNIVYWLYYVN
T1 sequence (P18507 40-475 partner): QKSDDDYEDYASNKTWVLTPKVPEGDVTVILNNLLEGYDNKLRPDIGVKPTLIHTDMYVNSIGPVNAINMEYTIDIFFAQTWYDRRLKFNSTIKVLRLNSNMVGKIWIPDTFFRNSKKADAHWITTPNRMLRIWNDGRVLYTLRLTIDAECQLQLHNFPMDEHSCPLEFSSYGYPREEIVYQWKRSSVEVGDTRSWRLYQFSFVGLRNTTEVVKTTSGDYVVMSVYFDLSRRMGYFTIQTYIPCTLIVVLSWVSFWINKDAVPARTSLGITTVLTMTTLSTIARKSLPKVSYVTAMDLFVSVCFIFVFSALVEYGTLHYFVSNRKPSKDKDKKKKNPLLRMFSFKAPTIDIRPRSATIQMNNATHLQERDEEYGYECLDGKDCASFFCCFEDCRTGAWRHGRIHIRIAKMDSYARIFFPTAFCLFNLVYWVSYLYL

For the compound `C[C@@]1(O)CC[C@H]2[C@H](CC[C@@H]3[C@@H]2CC[C@]2(C)[C@@H](C(=O)CO)CC[C@@H]32)C1`, in assay [1], the “% potentiation at 100 nM” value came out at 101% and the “% potentiation at 1000 nM” value was 163%. Moreover, the IC50 (in general, the concentration that inhibits the measured activity by half) in assay [2] came out at 86 nM.

Turning to `CC(=O)[C@H]1CC[C@H]2[C@@H]3CC[C@@H]4C[C@@](O)(C(F)F)CC[C@@H]4[C@H]3CC[C@]12C`, the IC50 in assay [2] was found to be 33 nM.

`COC[C@@]1(O)CC[C@H]2[C@H](CC[C@@H]3[C@@H]2CC[C@]2(C)[C@@H](C(=O)CO)CC[C@@H]32)C1`: the half-inhibitory concentration (IC50) in assay [2] was determined as 170 nM.

As to `COC[C@@]1(O)CC[C@H]2[C@H](CC[C@@H]3[C@@H]2CC[C@]2(C)[C@@H](C(C)=O)CC[C@@H]32)C1`, the IC50 in assay [2] came to 41 nM.

Consider `CC(=O)[C@H]1CC[C@H]2[C@@H]3CC[C@H]4C[C@](C)(O)CC[C@@H]4[C@H]3CC[C@]12C`, for which, in assay [1], the “% potentiation at 100 nM” value was found to be 80%, the “% potentiation at 1000 nM” value turned out to be 157% and the “% potentiation at 10000 nM” value is 270%. In addition, in assay [2], the IC50 turned out to be 93 nM.

In the case of `C[C@@]1(O)CC[C@H]2[C@@H](CC[C@@H]3[C@@H]2CC[C@]2(C)[C@@H](C(=O)CO)CC[C@@H]32)C1`, in assay [1], the “% potentiation at 1000 nM” value worked out at 130% and the “% potentiation at 10000 nM” value was found to be 227%. Moreover, in assay [2], the IC50 worked out at 220 nM.

Regarding `C[C@]12CC[C@H]3[C@@H](CC[C@H]4C[C@@](O)(C(F)F)CC[C@@H]43)[C@@H]1CC[C@@H]2C(=O)CO`, in assay [1], the “% potentiation at 1000 nM” value is given as 0% and the “% potentiation at 10000 nM” value was 100%. Further, in assay [2], the half-inhibitory concentration (IC50) was over 10000 nM.

Regarding `COC[C@@]1(O)CC[C@H]2[C@@H](CC[C@@H]3[C@@H]2CC[C@]2(C)[C@@H](C(=O)CO)CC[C@@H]32)C1`, the IC50 in assay [2] was 94 nM.

Consider `CC(=O)[C@H]1CC[C@H]2[C@@H]3CC[C@@H]4C[C@](O)(CF)CC[C@@H]4[C@H]3CC[C@]12C`, for which, in assay [2], the IC50 is 100 nM.
